Calls of active or inactive are those of the source.
Legend:
Format in all cases: functional, cell-based
MOLT-4 = assay: Growth inhibition of human MOLT4 cells at 1 uM after 48 hrs by sulforhodamine B assay
PC-3 = assay: Growth inhibition of human PC3 cells at 1 uM after 48 hrs by sulforhodamine B assay
K562 = assay: Growth inhibition of human K562 cells at 1 uM after 48 hrs by sulforhodamine B assay
RXF 393 = assay: Growth inhibition of human RXF393 cells at 1 uM after 48 hrs by sulforhodamine B assay
DU-145 = assay: Growth inhibition of human DU145 cells at 1 uM after 48 hrs by sulforhodamine B assay
NCI/ADR-RES = assay: Growth inhibition of human NCI/ADR-RES cells at 1 uM after 48 hrs by sulforhodamine B assay
CAKI-1 = assay: Growth inhibition of human Caki1 cells at 1 uM after 48 hrs by sulforhodamine B assay
SF-539 = assay: Growth inhibition of human SF539 cells at 1 uM after 48 hrs by sulforhodamine B assay
EKVX = assay: Growth inhibition of human EKVX cells at 1 uM after 48 hrs by sulforhodamine B assay
CCRF-CEM = assay: Growth inhibition of human CCRF-CEM cells at 1 uM after 48 hrs by sulforhodamine B assay
NCI-H322M = assay: Growth inhibition of human […] cells at 1 uM after 48 hrs by sulforhodamine B assay
HCC 2998 = assay: Growth inhibition of human HCC2998 cells at 1 uM after 48 hrs by sulforhodamine B assay
MCF7 = assay: Growth inhibition of human MCF7 cells at 1 uM after 48 hrs by sulforhodamine B assay
OVCAR-8 = assay: Growth inhibition of human OVCAR8 cells at 1 uM after 48 hrs by sulforhodamine B assay
UO-31 = assay: Growth inhibition of human UO31 cells at 1 uM after 48 hrs by sulforhodamine B assay
BT-549 = assay: Growth inhibition of human BT549 cells at 1 uM after 48 hrs by sulforhodamine B assay
HL-60 = assay: Growth inhibition of human HL-60(TB) cells at 1 uM after 48 hrs by sulforhodamine B assay
OVCAR-3 = assay: Growth inhibition of human OVCAR-3 cells at 1 uM after 48 hrs by sulforhodamine B assay
KM12 = assay: Growth inhibition of human KM12 cells at 1 uM after 48 hrs by sulforhodamine B assay
T47D = assay: Growth inhibition of human T47D cells at 1 uM after 48 hrs by sulforhodamine B assay
OVCAR-4 = assay: Growth inhibition of human OVCAR4 cells at 1 uM after 48 hrs by sulforhodamine B assay
U-251 = assay: Growth inhibition of human U251 cells at 1 uM after 48 hrs by sulforhodamine B assay
SN12C = assay: Growth inhibition of human SN12C cells at 1 uM after 48 hrs by sulforhodamine B assay
SK-MEL-2 = assay: Growth inhibition of human SK-MEL-2 cells at 1 uM after 48 hrs by sulforhodamine B assay
SW-620 = assay: Growth inhibition of human SW620 cells at 1 uM after 48 hrs by sulforhodamine B assay
UACC-257 = assay: Growth inhibition of human UACC257 cells at 1 uM after 48 hrs by sulforhodamine B assay
SK-MEL-5 = assay: Growth inhibition of human SK-MEL-5 cells at 1 uM after 48 hrs by sulforhodamine B assay
786-0 = assay: Growth inhibition of human 786-0 cells at 1 uM after 48 hrs by sulforhodamine B assay
NCI-H460 = assay: Growth inhibition of human NCI-H460 cells at 1 uM after 48 hrs by sulforhodamine B assay
SF530 = assay: Growth inhibition of human SF530 cells at 1 uM after 48 hrs by sulforhodamine B assay
HCT-116 = assay: Growth inhibition of human HCT116 cells at 1 uM after 48 hrs by sulforhodamine B assay
NCI-H23 = assay: Growth inhibition of human NCI-H23 cells at 1 uM after 48 hrs by sulforhodamine B assay
Hs-578T = assay: Growth inhibition of human Hs 578T cells at 1 uM after 48 hrs by sulforhodamine B assay
MDA-MB-435 = assay: Growth inhibition of human MDA-MB-435 cells at 1 uM after 48 hrs by sulforhodamine B assay
SNB-75 = assay: Growth inhibition of human SNB75 cells at 1 uM after 48 hrs by sulforhodamine B assay
RPMI-8226 = assay: Growth inhibition of human RPMI8226 cells at 1 uM after 48 hrs by sulforhodamine B assay
ACHN = assay: Growth inhibition of human ACHN cells at 1 uM after 48 hrs by sulforhodamine B assay
IGROV-1 = assay: Growth inhibition of human IGROV1 cells at 1 uM after 48 hrs by sulforhodamine B assay
SF-268 = assay: Growth inhibition of human SF268 cells at 1 uM after 48 hrs by sulforhodamine B assay
M14 = assay: Growth inhibition of human M14 cells at 1 uM after 48 hrs by sulforhodamine B assay
Malme-3M = assay: Growth inhibition of human MALME-3M cells at 1 uM after 48 hrs by sulforhodamine B assay
UACC-62 = assay: Growth inhibition of human UACC62 cells at 1 uM after 48 hrs by sulforhodamine B assay
SF-295 = assay: Growth inhibition of human SF295 cells at 1 uM after 48 hrs by sulforhodamine B assay
LOX IMVI = assay: Growth inhibition of human LOXIMVI cells at 1 uM after 48 hrs by sulforhodamine B assay
HOP-62 = assay: Growth inhibition of human HOP62 cells at 1 uM after 48 hrs by sulforhodamine B assay
A549 = assay: Growth inhibition of human A549 cells at 1 uM after 48 hrs by sulforhodamine B assay
A498 = assay: Growth inhibition of human A498 cells at 1 uM after 48 hrs by sulforhodamine B assay
COLO 205 = assay: Growth inhibition of human COLO205 cells at 1 uM after 48 hrs by sulforhodamine B assay
NCI-H226 = assay: Growth inhibition of human NCI-H226 cells at 1 uM after 48 hrs by sulforhodamine B assay
TK-10 = assay: Growth inhibition of human TK10 cells at 1 uM after 48 hrs by sulforhodamine B assay
HT-29 = assay: Growth inhibition of human HT-29 cells at 1 uM after 48 hrs by sulforhodamine B assay
SR = assay: Growth inhibition of human SR cells at 1 uM after 48 hrs by sulforhodamine B assay
HOP-92 = assay: Growth inhibition of human HOP92 cells at 1 uM after 48 hrs by sulforhodamine B assay
SK-MEL-28 = assay: Growth inhibition of human SK-MEL-28 cells at 1 uM after 48 hrs by sulforhodamine B assay
MDA-MB-468 = assay: Growth inhibition of human MDA-MB-468 cells at 1 uM after 48 hrs by sulforhodamine B assay
NCI-H522 = assay: Growth inhibition of human NCI-H522 cells at 1 uM after 48 hrs by sulforhodamine B assay
MDA-MB-231 = assay: Growth inhibition of human MDA-MB-231 cells at 1 uM after 48 hrs by sulforhodamine B assay
HCT-15 = assay: Growth inhibition of human HCT15 cells at 1 uM after 48 hrs by sulforhodamine B assay

Measured: growth inhibition (GI)

Nc1ncnc2c1N=C1c3ccccc3CCC1C(c1ccccc1)N2 (stereo unspecified)
active: all assays above

Nc1ncnc2c1N=C1c3ccccc3CCC1C(c1ccc(F)cc1)N2 (stereo unspecified)
active: all assays above

From ChEMBL document CHEMBL1177848, “Synthesis of novel 6,6a,7,8-tetrahydro-5H-naphtho[1,2-e]pyrimido[4,5-b][1,4]diazepines under microwave irradiation as potential anti-tumor agents” (2010)
